Assay results from ChEMBL document CHEMBL5385860, “Antiproliferative, antiangiogenic and apoptotic effect of new hybrids of quinazoline-4(3H)-ones and sulfachloropyridazine” (Eur J Med Chem, 2023).

Legend:
UO-31 [1] = assay: Induction of apoptosis in human UO-31 cells assessed as late apoptotic cells at IC50 by Annexin V-FITC/PI staining based flow cytometry analysis (reference value: […]); type: functional
[2] = molecular target: Vascular endothelial growth factor A, long form (Homo sapiens) (UniProt P15692); assay: Inhibition of VEGF-mediated cell migration in HUVEC cells assessed as wound closure at 10 ug/ml measured after 72 hrs by scratch-wound healing assay; type: cell-based; set-up: scale not given: the % may be the effect or the level left; conditions: dose 10.0 µg/ml
UO-31 [3] = assay: Induction of apoptosis in human UO-31 cells assessed as Bax protein level by ELISA (reference value: 70.11 +/- 7.45 pg/ml); type: functional
UO-31 [4] = assay: Induction of apoptosis in human UO-31 cells assessed as early apoptotic cells at IC50 by Annexin V-FITC/PI staining based flow cytometry analysis (reference value: 0.61%); type: functional
UO-31 [5] = assay: Induction of apoptosis in human UO-31 cells assessed as Bcl-2 protein level by ELISA (reference value: 12.19 +/- 0.64 ng/ml); type: functional
UO-31 [6] = assay: Induction of apoptosis in human UO-31 cells assessed as necrotic cells at IC50 by Annexin V-FITC/PI staining based flow cytometry analysis (reference value: 1.19%); type: functional
[7] = Inhibition of PDGFR (unknown origin) incubated for 60 mins in presence of ATP by ADP-Glo kinase assay; set-up: species or system Homo sapiens
UO-31 [8] = assay: Induction of cell cycle arrest in human UO-31 cells assessed as cell aggregates at 1.67 uM measured after 24 hrs by PI staining based flow cytometry analysis (reference value: 1.82%); type: functional
PC-3 = assay: Cytotoxicity against human PC-3 cells assessed as growth inhibition at 10 uM relative to control; type: functional; conditions: read-out: GI
MOLT-4 = assay: Cytotoxicity against human MOLT-4 cells assessed as growth inhibition at 10 uM relative to control; type: functional; conditions: read-out: GI
SF-268 = assay: Cytotoxicity against human SF-268 cells assessed as growth inhibition at 10 uM relative to control; type: functional; conditions: read-out: GI
RPMI-8226 = assay: Cytotoxicity against human RPMI-8226 cells assessed as growth inhibition at 10 uM relative to control; type: functional; conditions: read-out: GI
UACC-62 = assay: Cytotoxicity against human UACC-62 cells assessed as growth inhibition at 10 uM relative to control; type: functional; conditions: read-out: GI
BT-549 = assay: Cytotoxicity against human BT-549 cells assessed as growth inhibition at 10 uM relative to control; type: functional; conditions: read-out: GI
T47D = assay: Cytotoxicity against human T47D cells assessed as growth inhibition at 10 uM relative to control; type: functional; conditions: read-out: GI
Hs-578T = assay: Cytotoxicity against human Hs-578T cells assessed as growth inhibition at 10 uM relative to control; type: functional; conditions: read-out: GI
CAKI-1 = assay: Cytotoxicity against human CAKI-1 cells assessed as growth inhibition at 10 uM relative to control; type: functional; conditions: read-out: GI
M14 [9] = assay: cells; conditions: Homo sapiens, M14, light or radiation study
LOX IMVI = assay: Cytotoxicity against human LOX IMVI cells assessed as growth inhibition at 10 uM relative to control; type: functional; conditions: read-out: GI
U-251 = assay: Cytotoxicity against human U-251 cells assessed as growth inhibition at 10 uM relative to control; type: functional; conditions: read-out: GI
NCI-H522 = assay: Cytotoxicity against human NCI-H522 cells assessed as growth inhibition at 10 uM relative to control; type: functional; conditions: read-out: GI
A498 = assay: Cytotoxicity against human A498 cells assessed as growth inhibition at 10 uM relative to control; type: functional; conditions: read-out: GI
MCF7 = assay: Cytotoxicity against human MCF7 cells assessed as growth inhibition at 10 uM relative to control; type: functional; conditions: read-out: GI
SNB-75 = assay: Cytotoxicity against human SNB-75 cells assessed as growth inhibition at 10 uM relative to control; type: functional; conditions: read-out: GI
M14 [10] = assay: cells; conditions: Homo sapiens, M14, 24 h
MDA-MB-468 = assay: Cytotoxicity against human MDA-MB-468 cells assessed as growth inhibition at 10 uM relative to control; type: functional; conditions: read-out: GI
UO-31 [11] = assay: Cytotoxicity against human UO-31 cells assessed as growth inhibition at 10 uM relative to control; type: functional; conditions: read-out: GI
K562 = assay: Cytotoxicity against human K562 cells assessed as growth inhibition at 10 uM relative to control; type: functional; conditions: read-out: GI
IGROV-1 = assay: Cytotoxicity against human IGROV-1 cells assessed as growth inhibition at 10 uM relative to control; type: functional; conditions: read-out: GI
CCRF-CEM = assay: Cytotoxicity against human CCRF-CEM cells assessed as growth inhibition at 10 uM relative to control; type: functional; conditions: read-out: GI
RXF 393 = assay: Cytotoxicity against human RXF 393 cells assessed as growth inhibition at 10 uM relative to control; type: functional; conditions: read-out: GI
A549 = assay: Cytotoxicity against human A549 cells assessed as growth inhibition at 10 uM relative to control; type: functional; conditions: read-out: GI
786-0 = assay: Cytotoxicity against human 786-0 cells assessed as growth inhibition at 10 uM relative to control; type: functional; conditions: read-out: GI
SR = assay: Cytotoxicity against human SR cells assessed as growth inhibition at 10 uM relative to control; type: functional; conditions: read-out: GI
HOP-92 = assay: Cytotoxicity against human HOP-92 cells assessed as growth inhibition at 10 uM relative to control; type: functional; conditions: read-out: GI
KM12 = assay: Cytotoxicity against human KM12 cells assessed as growth inhibition at 10 uM relative to control; type: functional; conditions: read-out: GI
UO-31 [12] = assay: cells; conditions: Homo sapiens, UO-31, 24 h
SK-OV-3 = assay: Cytotoxicity against human SK-OV-3 cells assessed as growth inhibition at 10 uM relative to control; type: functional; conditions: read-out: GI
MDA-MB-231 = assay: Cytotoxicity against human MDA-MB-231 cells assessed as growth inhibition at 10 uM relative to control; type: functional; conditions: read-out: GI
UO-31 [13] = assay: cells; conditions: Homo sapiens, UO-31, light or radiation study
EKVX = assay: Cytotoxicity against human EKVX cells assessed as growth inhibition at 10 uM relative to control; type: functional; conditions: read-out: GI
HT-29 = assay: Cytotoxicity against human HT-29 cells assessed as growth inhibition at 10 uM relative to control; type: functional; conditions: read-out: GI
NCI-H23 = assay: Cytotoxicity against human NCI-H23 cells assessed as growth inhibition at 10 uM relative to control; type: functional; conditions: read-out: GI
NCI/ADR-RES = assay: Cytotoxicity against human NCI/ADR-RES cells assessed as growth inhibition at 10 uM relative to control; type: functional; conditions: read-out: GI
UACC-257 = assay: Cytotoxicity against human UACC-257 cells assessed as growth inhibition at 10 uM relative to control; type: functional; conditions: read-out: GI
ACHN = assay: Cytotoxicity against human ACHN cells assessed as growth inhibition at 10 uM relative to control; type: functional; conditions: read-out: GI
SF-539 = assay: Cytotoxicity against human SF-539 cells assessed as growth inhibition at 10 uM relative to control; type: functional; conditions: read-out: GI
NCI-H322M = assay: Cytotoxicity against human NCI-H322M cells assessed as growth inhibition at 10 uM relative to control; type: functional; conditions: read-out: GI
NCI-H226 = assay: Cytotoxicity against human NCI-H226 cells assessed as growth inhibition at 10 uM relative to control; type: functional; conditions: read-out: GI
HOP-62 = assay: Cytotoxicity against human HOP-62 cells assessed as growth inhibition at 10 uM relative to control; type: functional; conditions: read-out: GI

Vascular endothelial growth factor A, long form (Homo sapiens), sequence (P15692 whole entry): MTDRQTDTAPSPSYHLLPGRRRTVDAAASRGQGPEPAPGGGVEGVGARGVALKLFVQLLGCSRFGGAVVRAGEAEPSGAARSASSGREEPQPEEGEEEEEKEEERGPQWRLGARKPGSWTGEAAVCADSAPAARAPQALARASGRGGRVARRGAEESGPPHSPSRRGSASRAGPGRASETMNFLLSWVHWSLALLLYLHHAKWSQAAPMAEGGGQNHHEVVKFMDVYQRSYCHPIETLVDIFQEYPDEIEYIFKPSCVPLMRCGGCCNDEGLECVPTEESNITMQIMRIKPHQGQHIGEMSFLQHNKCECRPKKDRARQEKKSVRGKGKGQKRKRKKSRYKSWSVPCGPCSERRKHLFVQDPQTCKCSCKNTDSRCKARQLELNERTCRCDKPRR

| SMILES | inhibition of growth at 10 µM (MOLT-4) [%] | inhibition of growth at 10 µM (SF-268) [%] | inhibition of growth at 10 µM (RPMI-8226) [%] | inhibition of growth at 10 µM (UACC-62) [%] | inhibition of growth at 10 µM (BT-549) [%] | inhibition of growth at 10 µM (T47D) [%] | inhibition of growth at 10 µM (Hs-578T) [%] | inhibition of growth at 10 µM (CAKI-1) [%] | inhibition of growth at 10 µM (LOX IMVI) [%] | inhibition of growth at 10 µM (U-251) [%] | inhibition of growth at 10 µM (NCI-H522) [%] | inhibition of growth at 10 µM (A498) [%] | inhibition of growth at 10 µM (MCF7) [%] | inhibition of growth at 10 µM (SNB-75) [%] | inhibition of growth at 10 µM (MDA-MB-468) [%] | inhibition of growth at 10 µM (UO-31 [11]) [%] | inhibition of growth at 10 µM (K562) [%] | inhibition of growth at 10 µM (IGROV-1) [%] | inhibition of growth at 10 µM (CCRF-CEM) [%] | inhibition of growth at 10 µM (HOP-92) [%] | also measured |
| --- | --- | --- | --- | --- | --- | --- | --- | --- | --- | --- | --- | --- | --- | --- | --- | --- | --- | --- | --- | --- | --- |
| CNC(=O)c1cc(Oc2ccc(NC(=O)Nc3ccc(Cl)c(C(F)(F)F)c3)cc2)ccn1 [SORAFENIB] |  |  |  |  |  |  |  |  |  |  |  |  |  |  |  |  |  |  |  |  | Activity (UO-31 [1]): 31.17%; Activity [2]: 46.7%; Activity (UO-31 [3]): 409.2 pg/mL; Activity (UO-31 [4]): 19.42%; Activity (UO-31 [5]): 3.898 ng/mL; Activity (UO-31 [6]): 4.72%; IC50 [7]: 40 nM; Activity (UO-31 [8]): 1.47% |
| O=C(CSc1nc2ccccc2c(=O)n1-c1ccc(S(=O)(=O)Nc2ccc(Cl)nn2)cc1)Nc1ccccc1 | 18 | 10 | 11 | 35 | 13 | 18 | 27 | 12 | 18 | 22 | 10 | 15 | 17 | 11 | 15 | 13 | 12 | 13 | 11 |  | inhibition of growth at 10 µM (PC-3): 14%; IC50 (M14 [9]): 4.76 µM; IC50 (M14 [10]): 4.46 µM |
| O=C(CSc1nc2ccccc2c(=O)n1-c1ccc(S(=O)(=O)Nc2ccc(Cl)nn2)cc1)NCc1ccccc1 | 12 |  | 21 | 18 |  | 24 |  | 14 |  |  | 14 | 18 | 11 | 12 | 16 | 12 |  |  |  |  | inhibition of growth at 10 µM (RXF 393): 18%; inhibition of growth at 10 µM (A549): 11%; inhibition of growth at 10 µM (786-0): 10%; inhibition of growth at 10 µM (SR): 12% |
| O=C(CSc1nc2ccccc2c(=O)n1-c1ccc(S(=O)(=O)Nc2ccc(Cl)nn2)cc1)NCCc1ccccc1 | 20 | 13 | 11 | 20 | 10 | 27 | 23 |  | 14 |  | 22 | 37 | 24 |  | 10 | 29 | 11 | 15 | 14 | 12 | inhibition of growth at 10 µM (KM12): 14%; IC50 (UO-31 [12]): 3.14 µM; inhibition of growth at 10 µM (SK-OV-3): 20%; inhibition of growth at 10 µM (MDA-MB-231): 20%; IC50 (UO-31 [13]): 3.49 µM; inhibition of growth at 10 µM (786-0): 16%; inhibition of growth at 10 µM (EKVX): 24%; inhibition of growth at 10 µM (HT-29): 11%; inhibition of growth at 10 µM (SR): 21% |
| NS(=O)(=O)c1ccc(-n2c(SCC(=O)Nc3ccc(S(=O)(=O)Nc4ccc(Cl)nn4)cc3)nc3ccccc3c2=O)cc1 |  |  |  |  |  |  |  |  |  |  |  |  |  |  |  | 17 |  |  | 10 | 24 | inhibition of growth at 10 µM (NCI-H23): 14%; inhibition of growth at 10 µM (NCI/ADR-RES): 11%; inhibition of growth at 10 µM (UACC-257): 10%; inhibition of growth at 10 µM (ACHN): 10%; inhibition of growth at 10 µM (SF-539): 11% |
| CCCCn1c(SCC(=O)Nc2ccc(S(=O)(=O)Nc3ccc(Cl)nn3)cc2)nc2ccccc2c1=O |  |  |  | 14 | 14 |  |  | 18 |  | 10 | 13 |  |  | 23 |  | 29 |  | 15 |  | 32 | inhibition of growth at 10 µM (NCI-H322M): 12%; IC50 (UO-31 [12]): 14.7 µM; inhibition of growth at 10 µM (SK-OV-3): 16%; inhibition of growth at 10 µM (MDA-MB-231): 10%; inhibition of growth at 10 µM (EKVX): 11%; inhibition of growth at 10 µM (NCI-H226): 10%; inhibition of growth at 10 µM (HOP-62): 14% |
